Source: ChEMBL document CHEMBL1157531, “Sinulaflexiolides A-K, cembrane-type diterpenoids from the chinese soft coral Sinularia flexibilis” (J Nat Prod, 2008)

test: Cytotoxicity against human […] cells; type: functional, cell-based

SMILES	IC50
C=C1C(=O)O[C@]2(C)CC[C@@H]1C[C@H]1O[C@@]1(C)CC[C@H](OC(C)=O)[C@@]1(C)CC[C@@H]2O1	> 10 µg/mL
C=C1C(=O)O[C@@H]2C[C@H]1CC/C(C)=C/CC/C(C)=C/CC[C@]2(C)O	> 10 µg/mL
C=C1C(=O)O[C@]2(C)CC[C@@H]1C[C@@H](O)[C@@](C)(O)CC/C=C(\C)CC[C@@H]2O [CAPILLOLIDE]	> 10 µg/mL
C=C1C(=O)O[C@]2(C)CC[C@@H]1C[C@H](O)/C(C)=C/C/C=C(\C)CC[C@@H]2OC(C)=O [DENDRONPHOLIDE A]	> 10 µg/mL
C=C(C(=O)OC)[C@@H]1CC[C@@](C)(O)[C@@H]2CC[C@@](C)(O2)[C@@H](OC(C)=O)CC[C@]2(C)O[C@@H]2C1 [SINULAFLEXIOLIDE E]	8.5 µM
C=C(C(=O)OCC)[C@@H]1CC[C@@](C)(O)[C@@H]2CC[C@@](C)(O2)[C@@H](OC(C)=O)CC[C@]2(C)O[C@@H]2C1 [SINULAFLEXIOLIDE F]	0.12 µM
